This experiment deals with T1, SRPK1 (Homo sapiens, UniProt Q96SB4).
T1 construct: 0.1 µg of purified SRPK1 kinase
As to the kind of experiment: In vitro kinase assay (Kinase-Glo), SRPK1 inhibition. It is filed as biochemical. Particulars: for pIC50: SRPK1 inhibition assay, 1 µM ATP, SRSF1 RS peptide, 30°C 10 minutes. The procedure:
Candidate compounds were tested for SRPK1 inhibition using a Kinase-Glo assay (Promega, Southampton, UK32). […] Candidate compounds were serially diluted from 10 µM to 0.5 nM and added to the reaction mixture, wells with omitted SRPK1 kinase and omitted compounds were also added as controls. All wells contained 1% DMSO (Fisher Scientific, Loughborough, UK). One micromolar ATP was added, wells minus ATP were used as background controls. The plate was then incubated at 30°C for 10 minutes. An equal volume of Kinase-Glo (25 µL; Promega) was added to each well and the plate read for luminescence using a Fluostar Optima (BMG Labtech) .

pIC50: −log10 of the molar value.

T1 sequence (Q96SB4 whole entry): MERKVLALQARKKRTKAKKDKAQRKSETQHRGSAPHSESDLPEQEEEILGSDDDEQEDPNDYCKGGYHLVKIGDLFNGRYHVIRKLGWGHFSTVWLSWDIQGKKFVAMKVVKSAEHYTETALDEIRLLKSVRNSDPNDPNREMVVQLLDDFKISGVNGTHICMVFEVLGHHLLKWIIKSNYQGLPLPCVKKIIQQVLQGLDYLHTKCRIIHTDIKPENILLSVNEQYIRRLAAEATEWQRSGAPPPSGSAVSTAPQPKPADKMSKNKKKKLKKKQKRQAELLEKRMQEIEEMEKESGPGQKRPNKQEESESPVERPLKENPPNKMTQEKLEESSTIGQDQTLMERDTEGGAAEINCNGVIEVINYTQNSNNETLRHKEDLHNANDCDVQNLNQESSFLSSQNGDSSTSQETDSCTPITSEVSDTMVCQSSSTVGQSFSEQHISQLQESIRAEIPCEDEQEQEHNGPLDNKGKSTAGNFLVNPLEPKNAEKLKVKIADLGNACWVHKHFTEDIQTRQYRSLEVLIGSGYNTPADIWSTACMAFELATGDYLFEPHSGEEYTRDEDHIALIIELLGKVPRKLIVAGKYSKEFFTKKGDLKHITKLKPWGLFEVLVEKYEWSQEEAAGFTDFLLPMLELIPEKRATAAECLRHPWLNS

As for `Cc1ccc(CN2CCN(c3ccc(C(F)(F)F)cc3NC(=O)c3ccccn3)CC2)o1` [Compound 40, N-(2-(4-((5-methylfuran-2-yl)methyl)piperazin-1-yl)-5-(trifluoro-methyl)phenyl)picolinamide], the pIC50 is 6.84.

As to `O=C(Nc1cc(C(F)(F)F)ccc1N1CCN(Cc2ccoc2)CC1)c1ccccn1` [Compound 72, N-(2-(4-(furan-3-ylmethyl)piperazin-1-yl)-5-(trifluoromethyl)phenyl)picolinamide], the pIC50 is 8.28. Same read-out and setting: to `O=C(Nc1cc(C(F)(F)F)ccc1N1CCN(Cc2cncs2)CC1)c1ccc(C2CCOCC2)o1` [Compound 70, 5-(tetrahydro-2H-pyran-4-yl)-N-(2-(4-(thiazol-5-ylmethyl)piperazin-1-yl)-5-(trifluoromethyl)phenyl)furan-2-carboxamide] belongs 9.30. Still for that read-out and setting: to `Cc1ccc(CN2CCN(c3ccc(C(F)(F)F)cc3NC(=O)c3ccco3)CC2)o1` [Compound 48, N-(2-(4-((5-methylfuran-2-yl)methyl)piperazin-1-yl)-5-(trifluoromethyl)phenyl)furan-2-carboxamide] belongs 7.49. On the same count and under the same terms, under `O=C(Nc1cc(C(F)(F)F)ccc1N1CCN(Cc2cocn2)CC1)c1ncccn1` [Compound 54, N-(2-(4-(oxazol-4-ylmethyl)piperazin-1-yl)-5-(trifluoro-methyl)phenyl)pyrimidine-2-carboxamide] stands 6.46; under `O=C(Nc1cc(C(F)(F)F)ccc1N1CCN(Cc2c[nH]c3ccccc23)CC1)c1ccco1` [Compound 75, N-(2-(4-((1H-indol-3-yl)methyl)piperazin-1-yl)-5-(trifluoromethyl)phenyl)furan-2-carboxamide], 7.13; under `O=C(Nc1cc(C(F)(F)F)ccc1N1CCN(Cc2ccno2)CC1)c1ccccn1` [Compound 62, N-(2-(4-(isoxazol-5-ylmethyl)piperazin-1-yl)-5-(trifluoro-methyl)phenyl)picolinamide], 8.55.

Molecule `O=C(Nc1cc(C(F)(F)F)ccc1N1CCN(Cc2cocn2)CC1)c1ncco1` [Compound 42, N-(2-(4-(oxazol-4-ylmethyl)piperazin-1-yl)-5-(trifluoro-methyl)phenyl)oxazole-2-carboxamide] gave a pIC50 of 5.90. Same read-out and setting: to `O=C(Nc1cc(C(F)(F)F)ccc1N1CCN(Cc2cocn2)CC1)c1cc2ccccc2o1` [Compound 51, N-(2-(4-(oxazol-4-ylmethyl)piperazin-1-yl)-5-(trifluoro-methyl)-phenyl)benzofuran-2-carboxamide] belongs 7.68. The molecule `Cc1ccc(CN2CCN(c3ccc(C(F)(F)F)cc3NC(=O)c3ccc(C)o3)CC2)o1` [Compound 46, 5-methyl-N-(2-(4-((5-methylfuran-2-yl)methyl)piperazin-1-yl)-5-(trifluoromethyl)phenyl)furan-2-carboxamide] showed a pIC50 of 7.97. On the same count and under the same terms, to `O=C(Nc1cc(C(F)(F)F)ccc1N1CCN(Cc2cncs2)CC1)c1ccccn1` [Compound 32, N-(2-(4-(thiazol-5-ylmethyl)piperazin-1-yl)-5-(trifluoromethyl)phenyl)-picolinamide] belongs 9.30; to `O=C(Nc1cc(C(F)(F)F)ccc1N1CCN(Cc2c[nH]c3ccccc23)CC1)c1ccccn1` [Compound 38, N-(2-(4-((1H-indol-3-yl)methyl)piperazin-1-yl)-5-(trifluoromethyl)phenyl)picolinamide], 7.50; to `O=C(Nc1cc(C(F)(F)F)ccc1N1CCN(Cc2cocn2)CC1)c1ccc(C2CCOCC2)cn1` [Compound 59, N-(2-(4-(oxazol-4-ylmethyl)piperazin-1-yl)-5-(trifluoromethyl)phenyl)-5-(tetrahydro-2H-pyran-4-yl)picolinamide], 6.01. In turn, `O=C(Nc1cc(C(F)(F)F)ccc1N1CCN(Cc2cocn2)CC1)c1ccccn1` [Compound 36, N-(2-(4-(oxazol-4-ylmethyl)piperazin-1-yl)-5-(trifluoromethyl)phenyl)-picolinamide] had a pIC50 of 7.67. On the same count and under the same terms, under `O=C(Nc1cc(C(F)(F)F)ccc1N1CCN(Cc2cocn2)CC1)c1cccc(C2CCOCC2)n1` [Compound 58, N-(2-(4-(oxazol-4-ylmethyl)piperazin-1-yl)-5-(trifluoromethyl)phenyl)-6-(tetrahydro-2H-pyran-4-yl)picolinamide] stands 6.98; under `O=C(Nc1cc(C(F)(F)F)ccc1N1CCN(Cc2ccno2)CC1)c1ccc(C2CCOCC2)o1` [Compound 64, N-(2-(4-(isoxazol-5-ylmethyl)piperazin-1-yl)-5-(trifluoro-methyl)phenyl)-5-(tetrahydro-2H-pyran-4-yl)furan-2-carboxamide], 8.26. With `O=C(Nc1cc(C(F)(F)F)ccc1N1CCN(Cc2cocn2)CC1)c1cc[nH]n1` [Compound 53, N-(2-(4-(oxazol-4-ylmethyl)piperazin-1-yl)-5-(trifluoro-methyl)phenyl)-1H-pyrazole-3-carboxamide], the pIC50 was 7.08. As to `O=C(Nc1cc(C(F)(F)F)ccc1N1CCN(Cc2ccco2)CC1)c1ccncc1` [Compound 35, N-(2-(4-(furan-2-ylmethyl)piperazin-1-yl)-5-(trifluoromethyl)-phenyl)isonicotinamide], the pIC50 was 6.41.

In turn, `O=C(Nc1cc(C(F)(F)F)ccc1N1CCN(Cc2cocn2)CC1)c1cnccn1` [Compound 52, N-(2-(4-(oxazol-4-ylmethyl)piperazin-1-yl)-5-(trifluoro-methyl)phenyl)pyrazine-2-carboxamide] gave a pIC50 of 6.79. Same read-out and setting: to `O=C(Nc1cc(C(F)(F)F)ccc1N1CCN(Cc2cocn2)CC1)c1ccco1` [Compound 39, N-(2-(4-(oxazol-4-ylmethyl)piperazin-1-yl)-5-(trifluoro-methyl)-phenyl)furan-2-carboxamide] belongs 7.22; to `O=C(Nc1cc(C(F)(F)F)ccc1N1CCN(Cc2cc[nH]n2)CC1)c1ccccn1` [Compound 33, N-(2-(4-((1H-pyrazol-3-yl)methyl)piperazin-1-yl)-5-(trifluoromethyl)-phenyl)picolinamide], 7.90. The same measure, in the same setting: under `O=C(Nc1cc(C(F)(F)F)ccc1N1CCN(Cc2ccoc2)CC1)c1ccco1` [Compound 47, N-(2-(4-(furan-3-ylmethyl)piperazin-1-yl)-5-(trifluoromethyl)phenyl)furan-2-carboxamide] stands 7.66. Still for that read-out and setting: under `O=C(Nc1cc(C(F)(F)F)ccc1N1CCN(Cc2cocn2)CC1)c1ccccc1` [Compound 71, N-(2-(4-(oxazol-4-ylmethyl)piperazin-1-yl)-5-(trifluoromethyl)phenyl) benzamide] stands 6.14; under `Cc1nnc(CN2CCN(c3ccc(C(F)(F)F)cc3NC(=O)c3ccco3)CC2)o1` [Compound 49, N-(2-(4-((5-methyl-1,3,4-oxadiazol-2-yl)methyl)piperazin-1-yl)-5-(trifluoromethyl)phenyl)furan-2-carboxamide], 6.93. Regarding `O=C(Nc1cc(C(F)(F)F)ccc1N1CCN(Cc2cocn2)CC1)c1ccno1` [Compound 50, N-(2-(4-(oxazol-4-ylmethyl)piperazin-1-yl)-5-(trifluoro-methyl)phenyl)isoxazole-5-carboxamide], the pIC50 is 6.25. Still for that read-out and setting: to `O=C(Nc1cc(C(F)(F)F)ccc1N1CCN(Cc2cnoc2)CC1)c1ccccn1` [Compound 67, N-(2-(4-(isoxazol-4-ylmethyl)piperazin-1-yl)-5-(trifluoro-methyl)phenyl)-picolinamide] belongs 8.06; to `O=C(Nc1cc(C(F)(F)F)ccc1N1CCN(Cc2cscn2)CC1)c1ccccn1` [Compound 31, N-(2-(4-(thiazol-4-ylmethyl)piperazin-1-yl)-5-(trifluoromethyl)phenyl)-picolinamide], 8.17. The same measure, in the same setting: to `O=C(Nc1cc(C(F)(F)F)ccc1N1CCN(Cc2cocn2)CC1)c1cocn1` [Compound 57, N-(2-(4-(oxazol-4-ylmethyl)piperazin-1-yl)-5-(trifluoro-methyl)phenyl)oxazole-4-carboxamide] belongs 6.93.

Regarding `O=C(Nc1cc(C(F)(F)F)ccc1N1CCN(Cc2ccno2)CC1)c1ccco1` [Compound 63, N-(2-(4-(isoxazol-5-ylmethyl)piperazin-1-yl)-5-(trifluoro-methyl)phenyl)furan-2-carboxamide], the pIC50 was 6.50.

In the case of `Cc1ccc(C(=O)Nc2cc(C(F)(F)F)ccc2N2CCN(Cc3ccoc3)CC2)o1` [Compound 45, N-(2-(4-(furan-3-ylmethyl)piperazin-1-yl)-5-(trifluoromethyl)phenyl)-5-methylfuran-2-carboxamide], the pIC50 was 8.74. Consider `O=C(Nc1cc(C(F)(F)F)ccc1N1CCN(Cc2ccoc2)CC1)c1ccc(C2CCOCC2)o1` [Compound 43, N-(2-(4-(furan-3-ylmethyl)piperazin-1-yl)-5-(trifluoromethyl)phenyl)-5-(tetrahydro-2H-pyran-4-yl)furan-2-carboxamide], for which the pIC50 is 9.15. The “potency against SRPK1 relative to analogous compounds in which R3 is a pyridyl ring” value (by kinase assay or differential scanning fluorimetry, Figures 1 and 2) is given as “improved potency”. Consider `O=C(Nc1cc(C(F)(F)F)ccc1N1CCN(Cc2cocn2)CC1)c1ccncn1` [Compound 56, N-(2-(4-(oxazol-4-ylmethyl)piperazin-1-yl)-5-(trifluoro-methyl)phenyl)pyrimidine-4-carboxamide], for which the pIC50 was 6.87. For `Cc1ccc(CN2CCN(c3ccc(C(F)(F)F)cc3NC(=O)c3ccc(C4CCOCC4)o3)CC2)o1` [Compound 44, N-(2-(4-((5-methylfuran-2-yl)methyl)piperazin-1-yl)-5-(trifluoromethyl)phenyl)-5-(tetrahydro-2H-pyran-4-yl)furan-2-carboxamide], the pIC50 was 8.43. In the case of `Cn1ccc(CN2CCN(c3ccc(C(F)(F)F)cc3NC(=O)c3ccccn3)CC2)n1` [Compound 34, N-(2-(4-((1-methyl-1H-pyrazol-3-yl)methyl)piperazin-1-yl)-5-(trifluoromethyl)phenyl)picolinamide], the pIC50 was 7.57.

One may read the pIC50 as −log10 of the IC50, conventionally taken in molar units.

The values are drawn from patent EP3362444B1, “COMPOUNDS” (Exonate Limited, priority 2015, dated 2017).
